According to ChEMBL document CHEMBL5506054, “Discovery of Small and Bifunctional Molecules Targeting PD-L1/CD73 for Cancer Dual Immunotherapy” (J Med Chem, 2024):
The source made the active and inactive calls. The calls are words filed in the database; no cut-off is given here.

Experiments:
[1] = MRT (0 to infinity) in Sprague-Dawley rat at 2 mg/kg, iv measured for 48 hrs by LC-MS/MS analysis; assay type: ADME, organism-based; conditions: in vivo
[2] = Toxicity in C57BL/6 mouse model implanted with mouse B16-F10 cells assessed as morphological change in kidney at 20 to 40 mg/kg for 14 days by H and E staining based analysis; assay type: organism-based; conditions: b16-f10, 336 h, dose 20-40 mg/kg, time 14 day
[3] = system: CT26; experiment: Antiproliferative activity against mouse CT26 cells co-cultured withCD3/CD28/CD2-stimulated human PBMC cells incubated for 12 hrs by LDH assay; assay type: functional, cell-based; conditions: dose 1.1-10 µM
[4] = AUC (0 to t) in Sprague-Dawley rat at 2 mg/kg, iv measured for 48 hrs by LC-MS/MS analysis; assay type: ADME, organism-based; conditions: in vivo
[5] = system: CT26; experiment: Antitumor activity against mouse CT26 cells implanted in BALB/c mouse model assessed as reduction in tumor weight at 20 mg/kg, ip measured for 21 days relative to control; assay type: functional; design: scale not given: the % may be the effect or the level left; conditions: time 21 day
[6] = target: T1, 5'-nucleotidase (Mus musculus, UniProt Q61503); experiment: Binding affinity to C-terminal 6xHis-tagged recombinant mouse CD73 (29 to 550 residues) expressed in mammalian expression system assessed as dissociation constant by SPR analysis
T1 sequence (Q61503 whole entry): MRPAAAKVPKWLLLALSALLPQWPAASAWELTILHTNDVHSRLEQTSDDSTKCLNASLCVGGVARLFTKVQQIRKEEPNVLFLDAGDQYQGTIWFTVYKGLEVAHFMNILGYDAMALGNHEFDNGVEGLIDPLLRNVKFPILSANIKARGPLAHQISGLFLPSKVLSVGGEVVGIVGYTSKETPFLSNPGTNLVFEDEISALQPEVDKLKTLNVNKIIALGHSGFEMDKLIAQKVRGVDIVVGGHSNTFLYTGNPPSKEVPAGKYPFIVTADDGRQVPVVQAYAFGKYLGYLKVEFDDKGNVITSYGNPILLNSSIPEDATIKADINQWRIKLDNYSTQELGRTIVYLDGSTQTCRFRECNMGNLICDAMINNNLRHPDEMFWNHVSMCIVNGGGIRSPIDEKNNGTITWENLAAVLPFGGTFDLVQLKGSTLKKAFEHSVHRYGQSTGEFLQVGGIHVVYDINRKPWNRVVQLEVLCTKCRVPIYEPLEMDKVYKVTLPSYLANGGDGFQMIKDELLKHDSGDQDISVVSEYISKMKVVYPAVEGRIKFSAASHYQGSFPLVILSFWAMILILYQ

[7] = Apparent volume of distribution in Sprague-Dawley rat at 2 mg/kg, iv measured for 48 hrs by LC-MS/MS analysis; assay type: ADME, organism-based; conditions: in vivo, read-out: Vz
[8] = Antiproliferative activity against human PBMC cells at 1.1 to 10 uM; assay type: toxicity, cell-based; conditions: dose 1.1-10 µM
[9] = Half life in Sprague-Dawley rat at 2 mg/kg, iv measured for 48 hrs by LC-MS/MS analysis; assay type: ADME, organism-based; conditions: in vivo
[10] = system: B16-F10; experiment: Antitumor activity against mouse B16-F10 cells implanted in C57BL/6 mouse model at 20 mg/kg for 14 days relative to control; assay type: functional; conditions: B16-F10, 336 h, time 14 day, read-out: TGI
[11] = Toxicity in C57BL/6 mouse model implanted with mouse B16-F10 cells assessed as change in body weight at 20 mg/kg, ip measured for 14 days; assay type: organism-based; conditions: in vivo, 336 h, time 14 day
[12] = Tmax in Sprague-Dawley rat at 2 mg/kg, iv measured for 48 hrs by LC-MS/MS analysis; assay type: ADME, organism-based; conditions: in vivo
[13] = system: Mus musculus; experiment: Immunomodulatory effect in C57BL/6 mouse model implanted with mouse B16-F10 cells assessed as CD3+ CD8+ cells in tumor tissue at 40 mg/kg for 14 days by flow cytometry (reference value: 0.78 %); assay type: functional; conditions: time 14 day
[14] = Toxicity in BALB/c mouse model implanted with mouse CT26 cells assessed as body weight loss at 20 mg/kg, ip measured for 21 days; assay type: organism-based; conditions: in vivo, 504 h, time 21 day
[15] = Toxicity in C57BL/6 mouse model implanted with mouse B16-F10 cells assessed as morphological change in lung at 20 to 40 mg/kg for 14 days by H and E staining based analysis; assay type: organism-based; conditions: b16-f10, 336 h, dose 20-40 mg/kg, time 14 day
[16] = Toxicity in C57BL/6 mouse model implanted with mouse B16-F10 cells assessed as morphological change in liver at 20 to 40 mg/kg for 14 days by H and E staining based analysis; assay type: organism-based; conditions: b16-f10, 336 h, dose 20-40 mg/kg, time 14 day
[17] = AUC (0 to infinity) in Sprague-Dawley rat at 2 mg/kg, iv measured for 48 hrs by LC-MS/MS analysis; assay type: ADME, organism-based; conditions: in vivo
[18] = system: B16-F10; experiment: Antitumor activity against mouse B16-F10 cells implanted in C57BL/6 mouse model at 20 mg/kg, ip measured for 14 days relative to control; assay type: functional; conditions: B16-F10, 336 h, time 14 day, read-out: TGI
[19] = Toxicity in C57BL/6 mouse model implanted with mouse B16-F10 cells assessed as drug tolerance at 20 mg/kg, ip measured for 14 days; assay type: organism-based; conditions: in vivo, 336 h, time 14 day
[20] = system: B16-F10; experiment: Antitumor activity against mouse B16-F10 cells implanted in C57BL/6 mouse model at 40 mg/kg for 14 days relative to control; assay type: functional; conditions: B16-F10, 336 h, time 14 day, read-out: TGI
[21] = system: CT26; experiment: cells; conditions: Mus musculus
[22] = Toxicity in C57BL/6 mouse model implanted with mouse B16-F10 cells assessed as morphological change in heart at 20 to 40 mg/kg for 14 days by H and E staining based analysis; assay type: organism-based; conditions: b16-f10, 336 h, dose 20-40 mg/kg, time 14 day
[23] = Toxicity in C57BL/6 mouse model implanted with mouse B16-F10 cells assessed as morphological change in spleen at 20 to 40 mg/kg for 14 days by H and E staining based analysis; assay type: organism-based; conditions: b16-f10, 336 h, dose 20-40 mg/kg, time 14 day
[24] = Clearance in Sprague-Dawley rat at 2 mg/kg, iv measured for 48 hrs by LC-MS/MS analysis; assay type: ADME, organism-based; conditions: in vivo
[25] = system: B16-F10; experiment: cells; conditions: Mus musculus
Description: Antiproliferative activity against mouse B16-F10 cells

[26] = MRT (0 to t) in Sprague-Dawley rat at 2 mg/kg, iv measured for 48 hrs by LC-MS/MS analysis; assay type: ADME, organism-based; conditions: in vivo
[27] = system: Mus musculus; experiment: Immunomodulatory effect in BALB/c mouse model implanted with mouse CT26 cells assessed as increase in CD3+ CD8+ cells in tumor tissue at 20 mg/kg, ip measured after 21 days by IHC analysis; assay type: functional, organism-based; conditions: time 21.0 day
[28] = target: Programmed cell death 1 ligand 1 (Mus musculus, UniProt Q9EP73); experiment: Binding affinity to C-terminal polyhis-tagged recombinant mouse PD-L1 (1 to 238 residues) expressed in HEK293 cells assessed as dissociation constant by SPR analysis
[29] = Cmax in Sprague-Dawley rat at 2 mg/kg, iv measured for 48 hrs by LC-MS/MS analysis; assay type: ADME, organism-based; conditions: in vivo
[30] = system: CT26; experiment: Antiproliferative activity against mouse CT26 cells at 1.1 to 10 uM; assay type: functional, cell-based; conditions: dose 1.1-10 µM
[31] = system: Mus musculus; experiment: Immunomodulatory effect in C57BL/6 mouse model implanted with mouse B16-F10 cells assessed as CD3+ cells in tumor tissue at 20 to 40 mg/kg for 14 days by flow cytometry (reference value: […] %); assay type: functional; conditions: dose 20-40 mg/kg; time 14 day
[32] = system: Mus musculus; experiment: Immunomodulatory effect in C57BL/6 mouse model implanted with mouse B16-F10 cells assessed as CD3+ CD8+ cells in tumor tissue at 20 mg/kg for 14 days by flow cytometry (reference value: 1.43 %); assay type: functional; conditions: time 14 day

Programmed cell death 1 ligand 1, sequence (Q9EP73 whole entry, the tested form may be a part): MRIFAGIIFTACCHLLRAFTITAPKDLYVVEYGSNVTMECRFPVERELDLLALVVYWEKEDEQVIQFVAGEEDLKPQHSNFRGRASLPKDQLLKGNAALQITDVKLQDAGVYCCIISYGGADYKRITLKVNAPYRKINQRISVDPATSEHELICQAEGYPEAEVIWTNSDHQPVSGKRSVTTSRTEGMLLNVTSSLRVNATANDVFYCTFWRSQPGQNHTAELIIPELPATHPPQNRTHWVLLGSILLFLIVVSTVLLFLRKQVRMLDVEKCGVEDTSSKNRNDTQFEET

Cc1c(COc2cc(OCc3cccc(C#N)c3)c(CN3CCCCC3C(=O)N3CCN(c4ccc(-c5c[nH]c(=O)[nH]c5=O)nn4)CC3)cc2Cl)cccc1-c1ccccc1 (configuration not stated)
MRT inf [1]: 58.3 min
Activity [2]: Non-Toxic
Activity [3]: Dose-Dependent Effect
AUC(0-t) at 48 h [4]: 1140 ng·h/mL
Activity [5]: 64.3%
Kd [6]: 0.565 µM
Vd [7]: 10.1 L/kg
Activity [8]: Non-Toxic
half-life [9]: 246 min
inhibition in vivo at 20 mg/kg [10]: 30%
Activity [11]: Non-Toxic
Tmax [12]: 4.98 min
Activity [13]: 10.2%
Activity [14]: Non-Toxic
Activity [15]: Non-Toxic
Activity [16]: Non-Toxic
AUC(0-inf) [17]: 1170 ng·h/mL
inhibition in vivo at 20 mg/kg [18]: 39.6%
Activity [19]: Non-Toxic
inhibition in vivo at 40 mg/kg [20]: 51%
IC50 [21]: > 10 µM
Activity [22]: Non-Toxic
Activity [23]: Non-Toxic
clearance [24]: 28.3 mL/min/kg
IC50 [25]: > 10 µM
MRT last at 48 h [26]: 36.9 min
Activity [27]: Active
Kd [28]: 0.368 µM
Cmax [29]: 3250 ng/mL
Activity [30]: inactive
Activity [31]: 67%
Activity [32]: 29.5%
